Several values for one entry are separate records, joined by “and”; a condition that tells them apart may be missing. Identical values can stand only once. Entries after “also recorded” stand apart in the source; their conditions may differ.
How the values were obtained:
[1] = biological target: T1, PD-L2 (Mus musculus, UniProt Q9WUL5); assay: Rescue of PD-L2 mediated inhibition of proliferation, mouse splenocytes; type: cell-based; settings: mean ± S.D.; n=2; read-out: Mouse Splenocyte Proliferation Rescue EC50 PD-L2
T1 construct: purchased R&D Systems 1022-PL-100
Procedure: For all in vitro assays, test agent stock was prepared in water and diluted further in the assay media to achieve test concentrations. Each experimental condition was carried out in triplicates. Percent rescue for a given test compound concentration was calculated by normalizing individual percent test agent proliferation or IFN-γ release values to percent anti-CD3 and anti-CD28 antibodies stimulated proliferation or IFN-γ release.

[2] = biological target: T2, PD-L2 (Homo sapiens, UniProt Q9BQ51); assay: Rescue of proliferation inhibited by PD-L2, human PBMC; type: cell-based; settings: mean ± S.D.; n=3
T2 construct: purchased R&D systems 1224-PL-100
Procedure: (§1) The ability of peptides, peptidomimetics, and small molecules were analyzed for their ability to rescue T-cell proliferation or IFN-γ release from the inhibitory activity of PD-L1 or PD-L2 in a splenocyte/PBMC-based functional assay as per the protocols reported in publication. […] For all in vitro assays, test agent stock was prepared in water and diluted further in the assay media to achieve test concentrations. Each experimental condition was carried out in triplicates. Percent rescue for a given test compound concentration was calculated by normalizing individual percent test agent proliferation or IFN-γ release values to percent anti-CD3 and anti-CD28 antibodies stimulated proliferation or IFN-γ release. EC50 values were derived by plotting transformed data into non-linear fit in sigmoidal dose–response curve using GraphPad Prism software (Version 7).

[3] = tested on: B16F10 melanoma; assay: B16F10 melanoma lung metastasis model; type: in vivo, mouse; settings: 10 mg/kg/day orally for 14 days
Procedure: Studies in syngeneic models including B16 melanoma metastasis model and CT26 colon carcinoma subcutaneous model were performed as described. For the Docetaxel combination experiment in CT26 model, indicated dosage of docetaxel (Source: Docetere® injection by Dr Reddy’s Laboratories) was dosed intraperitoneally to animals. For the CA-170 combination groups, CA-170 (10 mg/kg/day, oral) was dosed ~10 min after docetaxel. Animal grouping, treatment efficacy assessment and %TGI calculations were performed as mentioned above. For the CT26 experiment with cyclophosphamide, 100 mg/kg of cyclophosphamide was dosed once on day 5 intraperitoneally after cell implantation (first day of dosing for all other groups). Anti-PD1 antibody (Clone J43 from BioXcel) was dosed intraperitoneally at 100 µg/animal once every week.

[4] = tested on: MC38 colon carcinoma; assay: MC38 tumors in immunodeficient SCID beige mice; type: in vivo, mouse; settings: for Individual tumor volumes: MC-38 in SCID beige mice, 10mg/kg, 10 mg/kg
Procedure: For MC38 syngeneic colon carcinoma subcutaneous model, 0.5 × 10^6 MC38 cells (Source: NCI/NIH, kind gift from Dr. Michael Pollack) were injected subcutaneously to the left flank of the C57B6 mouse (In-house) or SCID Beige mice (Source: Harlan, France) on day 1 and dosing was initiated when average tumor volume reached ~100 mm^3. Animals were randomized based on tumor volumes and treated with either a vehicle control or CA-170 at indicated doses for 14 days. Anti-PD1 antibody (Clone J43 from BioXcel) was dosed intraperitoneally at 100 µg/animal once every week. Treatment efficacy was assessed in terms of the effects of the test substances on the tumor volumes of treated mice relative to vehicle-treated mice. Tumor growth curves of test and control groups using the mean tumor volumes were drawn, percent tumor growth inhibition (%TGI) […].

[5] = Tolerability in the in vivo pharmacological studies (body weights, clinical signs); settings: all in vivo pharmacological studies
[6] = tested on: BZD (peripheral), BZD (central); assay: CEREP 80 panel binding: Benzodiazepine; settings: 10 µM
Procedure: (§2) CEREP 80 panel assay was carried out by Eurofins Cerep Panlabs facility at France. A series of binding assays was carried out to understand the off-target toxicity of CA-170. CA-170 was tested at 10 μM test concentration in duplicates. Compound binding was calculated as a % inhibition of the binding of a radioactively labeled ligand specific for each target. In each experiment the respective reference compound was tested concurrently with CA-170, and the data were compared with historical values determined at Eurofins. The experiment was accepted in accordance with Eurofins validation standard operating procedure. The results are expressed as a percent of control specific binding; (measured specific binding / control specific binding) × 100 and as a percent inhibition of control specific binding; 100−(measured specific binding / control specific binding) × 100 obtained in the presence of CA-170. The IC50 values (concentration causing a half-maximal inhibition of control specific binding) and Hill coefficients (nH) were determined by non-linear regression analysis of the competition curves generated with mean replicate values using Hill equation curve fitting.

[7] = tested on: Dopamine D1, D2S, D3, D44, D5; assay: CEREP 80 panel binding: Dopamine; settings: 10 µM
Procedure: as §2

[8] = tested on: Cholecystokinin CCK1, CCK2; assay: CEREP 80 panel binding: Cholecystokinin; settings: 10 µM
Procedure: as §2

[9] = tested on: Cl-Channel; assay: CEREP 80 panel binding: Cl-Channel; settings: 10 µM
Procedure: as §2

[10] = tested on: Muscarinic M1, M2, M3, M4, M5; assay: CEREP 80 panel binding: Muscarinic; settings: 10 µM
Procedure: as §2

[11] = tested on: Prostanoid EP4, IP, TP; assay: CEREP 80 panel binding: Prostanoid; settings: 10 µM
Procedure: as §2

[12] = tested on: NeuropeptideY Y1,Y2; assay: CEREP 80 panel binding: NeuropeptideY; settings: 10 µM
Procedure: as §2

[13] = biological target: T3, Vasopressin V1a (Homo sapiens, UniProt P37288); assay: CEREP 80 panel binding: Vasopressin; settings: read-out: % Inhibition of Control Specific Binding
T3 construct: Eurofins Cerep Panlabs (contract assay)
Procedure: as §2

[14] = biological target: T4, NeuropeptideY Y2 (Homo sapiens, UniProt P49146); assay: Y2 assay, determination of IC50 (CEREP follow-up); type: binding
T4 construct: Eurofins Cerep Panlabs (contract laboratory)
Procedure: as §2
Opioid & Opioid like DOP, KOP, MOP, NOP ≤9
Nuclear receptors GR, PPARγ ≤7
Ion Channels Ca2+, Kv, Skca, […] 1
Amine transporters DA, NE, 5HT ≤1
25% effect at the highest validated testing concentration.

[15] = biological target: PD-L1 (Homo sapiens, UniProt Q9NZQ7); assay: Rescue of IFN-γ release inhibited by PD-L1, human PBMC; type: cell-based; parameters: purchased R&D systems 156-B7-100; settings: for IFNγ Rescue (%): inhibited by PD-L1; for IFNγ Rescue (%) / IFN-γ: replicates; for IFN-γ: human PBMCs + anti-CD3/anti-CD28 + PD-L1 10 nM
Procedure: as §1

PD-L1, sequence (Q9NZQ7 with tags, fused parts or gaps limits assumed): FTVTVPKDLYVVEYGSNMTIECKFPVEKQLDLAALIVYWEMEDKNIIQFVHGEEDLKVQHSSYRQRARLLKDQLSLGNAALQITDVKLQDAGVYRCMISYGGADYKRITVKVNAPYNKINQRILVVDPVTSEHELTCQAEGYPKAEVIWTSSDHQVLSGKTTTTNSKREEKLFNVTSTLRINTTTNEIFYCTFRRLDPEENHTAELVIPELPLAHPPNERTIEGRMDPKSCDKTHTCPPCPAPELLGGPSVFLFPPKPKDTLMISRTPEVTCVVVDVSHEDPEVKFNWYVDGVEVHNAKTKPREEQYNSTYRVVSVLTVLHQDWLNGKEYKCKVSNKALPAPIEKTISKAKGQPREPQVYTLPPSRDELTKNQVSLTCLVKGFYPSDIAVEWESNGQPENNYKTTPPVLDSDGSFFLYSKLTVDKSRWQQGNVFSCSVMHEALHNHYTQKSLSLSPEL
T4 sequence (P49146 whole entry): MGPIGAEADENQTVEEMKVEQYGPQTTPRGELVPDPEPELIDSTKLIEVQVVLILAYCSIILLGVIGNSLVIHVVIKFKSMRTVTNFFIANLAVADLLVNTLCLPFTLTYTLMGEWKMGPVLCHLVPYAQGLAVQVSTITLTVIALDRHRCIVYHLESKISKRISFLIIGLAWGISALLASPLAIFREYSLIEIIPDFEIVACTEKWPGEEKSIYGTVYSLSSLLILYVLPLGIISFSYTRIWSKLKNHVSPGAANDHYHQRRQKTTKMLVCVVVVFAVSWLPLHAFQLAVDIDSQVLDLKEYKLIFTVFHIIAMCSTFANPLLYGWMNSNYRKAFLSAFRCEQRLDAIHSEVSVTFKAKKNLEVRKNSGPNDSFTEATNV
T2 sequence (Q9BQ51 with tags, fused parts or gaps limits assumed): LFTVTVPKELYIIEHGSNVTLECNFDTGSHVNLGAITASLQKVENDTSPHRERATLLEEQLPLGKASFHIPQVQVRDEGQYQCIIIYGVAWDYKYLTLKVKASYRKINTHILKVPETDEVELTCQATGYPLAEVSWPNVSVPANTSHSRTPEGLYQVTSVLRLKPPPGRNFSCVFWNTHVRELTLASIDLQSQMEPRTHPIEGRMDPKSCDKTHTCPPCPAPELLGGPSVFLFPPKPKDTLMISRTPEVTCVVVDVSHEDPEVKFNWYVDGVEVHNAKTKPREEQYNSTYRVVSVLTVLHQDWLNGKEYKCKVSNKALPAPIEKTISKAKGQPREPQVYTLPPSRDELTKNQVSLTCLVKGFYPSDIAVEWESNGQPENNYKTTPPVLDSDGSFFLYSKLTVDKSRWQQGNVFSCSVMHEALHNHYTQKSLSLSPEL
T1 sequence (Q9WUL5 with tags, fused parts or gaps limits assumed): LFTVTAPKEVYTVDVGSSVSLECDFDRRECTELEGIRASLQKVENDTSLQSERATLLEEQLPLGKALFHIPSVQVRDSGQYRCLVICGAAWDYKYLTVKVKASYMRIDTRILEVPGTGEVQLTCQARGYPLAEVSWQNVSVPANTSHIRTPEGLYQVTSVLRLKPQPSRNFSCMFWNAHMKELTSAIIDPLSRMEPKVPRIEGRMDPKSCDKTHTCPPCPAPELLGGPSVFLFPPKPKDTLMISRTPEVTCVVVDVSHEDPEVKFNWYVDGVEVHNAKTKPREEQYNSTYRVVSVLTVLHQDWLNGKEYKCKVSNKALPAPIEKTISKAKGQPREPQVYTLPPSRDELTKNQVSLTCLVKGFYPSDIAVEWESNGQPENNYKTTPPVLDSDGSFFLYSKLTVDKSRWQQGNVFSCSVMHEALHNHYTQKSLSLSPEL
T3 sequence (P37288 whole entry): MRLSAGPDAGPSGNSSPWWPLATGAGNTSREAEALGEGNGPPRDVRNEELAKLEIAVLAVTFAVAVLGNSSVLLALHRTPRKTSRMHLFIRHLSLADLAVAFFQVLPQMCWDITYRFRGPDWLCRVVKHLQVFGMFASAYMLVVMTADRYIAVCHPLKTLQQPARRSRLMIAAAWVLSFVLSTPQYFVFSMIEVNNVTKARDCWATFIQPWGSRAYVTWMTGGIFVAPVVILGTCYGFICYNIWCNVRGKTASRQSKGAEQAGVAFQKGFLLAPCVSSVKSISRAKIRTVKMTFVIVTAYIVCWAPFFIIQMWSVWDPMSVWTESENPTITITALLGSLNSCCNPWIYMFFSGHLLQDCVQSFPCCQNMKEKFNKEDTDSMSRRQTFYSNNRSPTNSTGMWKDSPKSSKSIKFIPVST

## C[C@@H](O)[C@H](NC(=O)N[C@@H](CC(N)=O)c1nc([C@@H](N)CO)no1)C(=O)O [CA-170]
[1]
  EC50: 40.2 nM
[2]
  EC50: 51.5 nM
[3]; B16F10, vs vehicle control
  reduction in metastatic nodules: 73%
[3]; B16F10 iv in C57B6 mice, 10 mg/kg/day
  Individual Metastatic nodules on lungs: 3 and 23 and 2 and 13 and 0 and 8 and 1 and 10 and 14
[4]; day 0 of treatment
  Individual tumor volumes: 18.9 mm3 and 19.8 mm3 and 20.5 mm3 and 23 mm3 and 24.3 mm3 and 24.4 mm3 and 27.8 mm3 and 29.3 mm3 and 36.6 mm3 and 38.8 mm3 and 45.9 mm3
[4]; day 4 of treatment
  Individual tumor volumes: 165.2 mm3 and 101 mm3 and 33 mm3 and 98.6 mm3 and 101.4 mm3 and 42.7 mm3 and 80.2 mm3 and 120.3 mm3 and 117 mm3 and 120.8 mm3 and 58.8 mm3
[4]; day 6 of treatment
  Individual tumor volumes: 428.8 mm3 and 320.3 mm3 and 190.1 mm3 and 337.3 mm3 and 331.1 mm3 and 174.3 mm3 and 206.7 mm3 and 322.4 mm3 and 214 mm3 and 233.5 mm3 and 207.9 mm3
[4]; day 8 of treatment
  Individual tumor volumes: 764.7 mm3 and 861.8 mm3 and 304.4 mm3 and 735.9 mm3 and 484.9 mm3 and 297 mm3 and 527.3 mm3 and 483.7 mm3 and 349.6 mm3 and 472.6 mm3 and 369.9 mm3
[4]; day 11 of treatment
  Individual tumor volumes: 1229.8 mm3 and 1458.4 mm3 and 838.9 mm3 and 1334.2 mm3 and 1120.4 mm3 and 912.1 mm3 and 1214.1 mm3 and 1274.2 mm3 and 788.4 mm3 and 1032.8 mm3 and 931.5 mm3
[4]; day 13 of treatment
  Individual tumor volumes: 1679 mm3 and 1958.7 mm3 and 1062 mm3 and 1678.6 mm3 and 1535.8 mm3 and 938 mm3 and 1760.9 mm3 and 1177.1 mm3 and 1641.5 mm3 and 1410.5 mm3
[4]; SCID beige mice, MC-38, 10 mg/kg/day for 14 days
  tumor growth vs vehicle in immunodeficient mice (in words): no difference in the tumor volumes; also recorded: no statistically significant difference
[5]
  tolerability (body weights, clinical signs; in words): well tolerated
[6]
  % Inhibition of Control Specific Binding: ≤ 5%
[7]
  % Inhibition of Control Specific Binding: ≤ 14%
[8]
  % Inhibition of Control Specific Binding: < 0%
[9]
  % Inhibition of Control Specific Binding: 2%
[10]
  % Inhibition of Control Specific Binding: ≤ 12%
[11]
  % Inhibition of Control Specific Binding: ≤ 5%
[12]
  % Inhibition of Control Specific Binding: ≤ 78%
[13]
  inhibition at 10 µM: 1%
[14]; Y2
  EC50 value (Y2 assay taken for determination of IC50): not calculable
[14]; Y2 concentration-response curve
  effect at the highest validated testing concentration: less than 25%
[15]; 1.95 nM
  IFNγ Rescue (%): -2.66% and -2.30% and -1.54%
[15]; 3.91 nM
  IFNγ Rescue (%): -2.42% and -2.56% and -1.54%
[15]; 15.63 nM
  IFNγ Rescue (%): 20.10% and 20.46% and 27.08%
[15]; 31.25 nM
  IFN-γ: 256.5 pg/mL and 264 pg/mL and 296.5 pg/mL
  IFNγ Rescue (%): 21.31% and 22.51% and 31.08%
[15]; 62.50 nM
  IFNγ Rescue (%): 42.13% and 43.48% and 57.23%
[15]; 250.00 nM
  IFNγ Rescue (%): 76.76% and 83.89% and 104.62%
[15]; 500 nM
  IFN-γ: 876.5 pg/mL and 939 pg/mL and 906.5 pg/mL
[15]; 500.00 nM
  IFNγ Rescue (%): 81.36% and 91.56% and 106.15%
[15]; human PBMCs stimulated with anti-CD3 and anti-CD28
  rescue of IFNγ release inhibited by recombinant PD-L1 (in words): rescued IFNγ release
[15]; mean ± S.D., n=3
  EC50: 66.1 nM

Source: article PMC8187357 (Communications Biology, 2021)
